Laboratory results: US5484780A, “Angiotensin II antagonists” (Eli Lilly and Company, priority 1994, dated 1996)
“And” between values parts separate entries of the source, which are not always exact repeats. Equal values may be shown once.

Molecular target: T1, angiotensin-induced vasoconstriction (rabbit aorta) (Oryctolagus cuniculus, UniProt P34976)
T1 construct: The thoracic aortas were removed and cleaned of excess fat and connective tissue; from tissue; host or cells: thoracic aorta rings of New Zealand white rabbits (animals from Hazelton)
T1 sequence (P34976 1-359): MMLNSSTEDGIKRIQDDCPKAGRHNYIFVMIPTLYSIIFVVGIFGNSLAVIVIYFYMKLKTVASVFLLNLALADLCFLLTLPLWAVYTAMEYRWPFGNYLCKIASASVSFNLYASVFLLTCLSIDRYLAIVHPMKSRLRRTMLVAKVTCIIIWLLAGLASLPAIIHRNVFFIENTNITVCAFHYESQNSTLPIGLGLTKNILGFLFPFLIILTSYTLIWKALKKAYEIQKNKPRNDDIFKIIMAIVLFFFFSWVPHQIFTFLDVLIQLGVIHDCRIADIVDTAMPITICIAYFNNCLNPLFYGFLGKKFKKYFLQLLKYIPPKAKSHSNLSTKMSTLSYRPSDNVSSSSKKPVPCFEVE
Assay: Rabbit Aorta Test System: antagonism of angiotensin II contraction of aortic rings
Set-up: species or system New Zealand white rabbits
Details: contraction to AII 10^-10 to 10^-7 M, 30 minutes incubation with compound; pA2 = -log KB
Experimental: As previously discussed, the compounds of Formula I are potent effective antagonists of angiotensin II. The ability of representative compounds of Formula I to block angiotensin II receptor binding was determined using the adrenal glomerulosa assay. The ability to antagonize angiotensin-induced vasoconstriction was evaluated in the rabbit aorta test system.
New Zealand white rabbits (Hazelton, 2-3 kg) were sacrificed by cervical dislocation. The thoracic aortas were removed and cleaned of excess fat and connective tissue. Rings of tissue (3 mm wide) were mounted in 10 ml tissue baths between 2 L-shaped stainless steel hooks. The lower hook was attached to a stationary rod. The upper hook was attached to a force displacement transducer (Grass model FT.03). The bath chambers were maintained at 37° C., aerated with 95% 02 /5% C02, and contained physiological solution of the following composition (mM): NaCl, 117; glucose, 5.6; NaH2 PO4, 1.0; MgS04, 0.7; KCl, 5.2; CaCl2, 1.8; NaHCO3, 26; and phentolamine HCl, 0.003.
Rings were equilibrated for 1 hour with 2 g of tension. During the equilibration period, the tissues were washed by overflow every 15 minutes. Rings were then exposed to 10^-8 M angiotensin II (AII) and were allowed to contract until a steady state was reached. Tissues were then washed every 15 minutes for 1 hour. This was repeated every hour until the AII response stabilized. A cumulative concentration response curve to AII (10^-10 to 10^-7 M) was then obtained. At the conclusion of the concentration response curve, tissues were washed every 2 minutes until baseline tension was reached, then every 15 minutes for 30 minutes. Compounds were added in a volume of 10 μl DMSO and allowed to incubate for 30 minutes before repeating the concentration response curve to AII. Contractions to AII were expressed as a percent of the maximum contraction obtained in the control curve (the first AII concentration response curve). EC50 's (concentration that contracted the tissues to 1/2 the control maximum) for each curve were calculated using a 4 parameter logistics model (NonLin, SAS Institute). Potency data for each compound tested are expressed as the pA2 (defined as-log KB, where KB =[molar concentration of antagonist]/[(EC50 AII with antagonist/EC50 AII without antagonist)-1]).

Row | Kb | Rabbit Aorta (pA2) | SMILES
1 | 1.58 nM | – | CCCCCC[C@H](C(=O)N1C[C@@H](Oc2ccc(CC(=O)O)cc2)C[C@H]1C(=O)O)n1cnc(NC(=O)c2ccccc2-c2nn[nH]n2)c1 [Example 77]
2 | 0.251 nM | – | CCCCCC[C@H](C(=O)N1C[C@@H](Oc2ccc(N(C)S(C)(=O)=O)cc2)C[C@H]1C(=O)O)n1cnc(NC(=O)c2ccccc2S(=O)(=O)O)c1 [Example 94, (R)-1-[1-oxo-2-[4-(2-sulfobenzoyl)amino-1H-imidazol-1-yl]octyl]-4-(cis)-[(4-N,N-methyl-methanesulfonamido)-phenoxy]-L-proline]
3 | 2 nM | – | CCCCCC[C@H](C(=O)N1C[C@@H](Oc2ccc(CO)cc2)C[C@H]1C(=O)O)n1cnc(NC(=O)c2ccccc2S(=O)(=O)O)c1 [Example 35]
4 | 3.16 nM | – | CCCCCCC(C(=O)N1C[C@@H](Oc2ccccc2)C[C@H]1C(=O)O)n1cnc(NC(=O)c2cccc(O)c2C(=O)O)c1 (single isomer, unassigned) [Example 20, 1-[1-oxo-2-[4-(2-carboxy-3-hydroxybenzoyl)amino-1H-imidazol-1-yl]octyl]-4-cis-phenoxy-L-Proline]
5 | 0.398 nM | – | CCCCCC[C@H](C(=O)N1C[C@@H](Oc2ccc(CC(=O)O)cc2)C[C@H]1C(=O)O)n1cnc(NC(=O)c2ccccc2S(=O)(=O)O)c1 [Example 36]
6 | 31.6 nM | – | CCCCCC[C@H](C(=O)N1C[C@@H](Oc2ccc3ccccc3c2)C[C@H]1C(=O)O)n1cnc(NC(=O)c2cccc(O)c2C(=O)O)c1 [Example 89]
7 | 0.2 nM | – | CCCCCCC(C(=O)N1C[C@@H](Oc2ccc(OC)cc2)C[C@H]1C(=O)O)n1cnc(NC(=O)c2ccccc2S(=O)(=O)O)c1 (single isomer, unassigned) [Example 18]
8 | 1.26 nM | – | CCCCCCC(C(=O)N1C[C@@H](Oc2ccc(O)cc2)C[C@H]1C(=O)O)n1cnc(NC(=O)c2ccccc2S(=O)(=O)O)c1 (single isomer, unassigned) [Example 19]
9 | 0.398 nM | – | CCCCCC[C@H](C(=O)N1C[C@@H](Oc2ccc(CCC(=O)O)cc2)C[C@H]1C(=O)O)n1cnc(NC(=O)c2ccccc2S(=O)(=O)O)c1 [Example 37]
10 | 0.794 nM | – | CCCCCC[C@H](C(=O)N1C[C@@H](Oc2ccc(CC(=O)O)cc2)C[C@H]1C(=O)O)n1cnc(NC(=O)c2cccc(O)c2C(=O)O)c1 [Example 86]
11 | 0.794 nM | – | CCCCCC[C@H](C(=O)N1C[C@@H](Oc2ccc(OC(C)(C)C(=O)O)cc2)C[C@H]1C(=O)O)n1cnc(NC(=O)c2ccccc2S(=O)(=O)O)c1 [Example 58]
12 | 0.316 nM | – | CCCCCC[C@H](C(=O)N1C[C@@H](Oc2ccc(OCC(=O)O)cc2)C[C@H]1C(=O)O)n1cnc(NC(=O)c2ccccc2S(=O)(=O)O)c1 [Example 57]
13 | 1.26 nM | – | CCCCCC[C@H](C(=O)N1C[C@@H](Oc2ccc(C(=O)O)cc2)C[C@H]1C(=O)O)n1cnc(NC(=O)c2cccc(O)c2C(=O)O)c1 [Example 85]
14 | 1 nM | – | CCCCCC[C@H](C(=O)N1C[C@@H](Oc2ccc3ccc(OC)cc3c2)C[C@H]1C(=O)O)n1cnc(NC(=O)c2ccccc2S(=O)(=O)O)c1 [Example 62]
15 | 1 nM | – | CCCCCC[C@H](C(=O)N1C[C@@H](Oc2ccc(S(=O)(=O)N3CCCC3)cc2)C[C@H]1C(=O)O)n1cnc(NC(=O)c2ccccc2S(=O)(=O)O)c1 [Example 39]

The remaining lines, values behind:

Row | SMILES | Kb | Rabbit Aorta (pA2)
16 | CCCCCCC(C(=O)N1CCC[C@H]1C(=O)O)n1cnc(NC(=O)c2ccccc2S(=O)(=O)O)c1 (single isomer, unassigned) [Example 21, 1-[1-Oxo-2-[4-(2-sulfobenzoyl)amino-1H-imidazol-1-yl]octyl]-L-proline] | 63.1 nM and 501 nM | –
17 | CCCCCC[C@H](C(=O)N1C[C@@H](Oc2ccc(OC3CCCC3)cc2)C[C@H]1C(=O)O)n1cnc(NC(=O)c2ccccc2S(=O)(=O)O)c1 [Example 54] | 2.51 nM | –
18 | CCCCCC[C@H](C(=O)N1C[C@@H](Oc2ccc(O)cc2)C[C@H]1C(=O)O)n1cnc(NC(=O)c2cccc(O)c2C(=O)O)c1 [Example 81] | 1.58 nM | –
19 | CCCCCC[C@H](C(=O)N1C[C@@H](Oc2ccc3oc(C(=O)O)cc3c2)C[C@H]1C(=O)O)n1cnc(NC(=O)c2ccccc2S(=O)(=O)O)c1 [Example 70] | 0.501 nM | –
20 | CCCCCC[C@H](C(=O)N1C[C@@H](Oc2ccc3oc(C)cc3c2)C[C@H]1C(=O)O)n1cnc(NC(=O)c2ccccc2S(=O)(=O)O)c1 [Example 69] | 0.501 nM | –
21 | CCCCCC[C@H](C(=O)N1C[C@@H](Oc2ccc(CNS(C)(=O)=O)cc2)C[C@H]1C(=O)O)n1cnc(NC(=O)c2ccccc2S(=O)(=O)O)c1 [Example 95] | 0.158 nM | –
22 | CCCCCC[C@H](C(=O)N1C[C@@H](Oc2cccnc2)C[C@H]1C(=O)O)n1cnc(NC(=O)c2ccccc2S(=O)(=O)O)c1 [Example 73] | 158 nM | –
23 | CCCCCC[C@H](C(=O)N1C[C@@H](Oc2ccc(NS(C)(=O)=O)cc2)C[C@H]1C(=O)O)n1cnc(NC(=O)c2ccccc2S(=O)(=O)O)c1 [Example 92, 1-[1-oxo-2-[4-(2-sulfobenzoyl)amino-1H-imidazol-1-yl]octyl]-4-cis-[(4-N-methanesulfonamido)-phenoxy]-L-proline] | 0.126 nM | –
24 | CCCCCC[C@H](C(=O)N1C[C@@H](Oc2ccc(C(=O)O)cc2)C[C@H]1C(=O)O)n1cnc(NC(=O)c2ccccc2-c2nn[nH]n2)c1 [Example 78] | 3.16 nM | –
25 | CCCCCC[C@H](C(=O)N1C[C@@H](Oc2ccc(C(C)(C)C)cc2)C[C@H]1C(=O)O)n1cnc(NC(=O)c2ccccc2S(=O)(=O)O)c1 [Example 25] | 126 nM | –
26 | CCCCCC[C@H](C(=O)N1C[C@@H](Oc2ccc3ccc(C(=O)O)cc3c2)C[C@H]1C(=O)O)n1cnc(NC(=O)c2ccccc2S(=O)(=O)O)c1 [Example 63] | 1.58 nM | –
27 | CCCCCC[C@H](C(=O)N1C[C@@H](Oc2ccc(OCC(=O)O)cc2)C[C@H]1C(=O)O)n1cnc(NC(=O)c2ccccc2-c2nn[nH]n2)c1 [Example 79] | 0.501 nM | –
28 | CCCCCC[C@H](C(=O)N1C[C@@H](Oc2ccc(CC(=O)N3CCC[C@H]3C(=O)O)cc2)C[C@H]1C(=O)O)n1cnc(NC(=O)c2ccccc2S(=O)(=O)O)c1 [Example 47] | 1 nM | –
29 | CCCCCC[C@H](C(=O)N1C[C@@H](Oc2ccc(F)cc2)C[C@H]1C(=O)O)n1cnc(NC(=O)c2ccccc2S(=O)(=O)O)c1 [Example 28] | – | 8.7
30 | CCCCCC[C@H](C(=O)N1C[C@@H](Oc2ccc3sccc3c2)C[C@H]1C(=O)O)n1cnc(NC(=O)c2ccccc2S(=O)(=O)O)c1 [Example 72] | 3.16 nM | –
31 | CCCCCC[C@H](C(=O)N1C[C@@H](Oc2ccc(C)cc2)C[C@H]1C(=O)O)n1cnc(NC(=O)c2ccccc2S(=O)(=O)O)c1 [Example 22] | 0.398 nM | –
32 | CCCCCC[C@H](C(=O)N1C[C@@H](Oc2ccc(OCC)cc2)C[C@H]1C(=O)O)n1cnc(NC(=O)c2cccc(O)c2C(=O)O)c1 [Example 83] | – | 8.9
33 | CCCCCC[C@H](C(=O)N1C[C@@H](Oc2ccc(OC)c(OC)c2)C[C@H]1C(=O)O)n1cnc(NC(=O)c2cccc(O)c2C(=O)O)c1 [Example 90] | 20 nM | –
34 | CCCCCC[C@H](C(=O)N1C[C@@H](Oc2ccc(C#N)cc2)C[C@H]1C(=O)O)n1cnc(NC(=O)c2cccc(O)c2C(=O)O)c1 [Example 87] | 31.6 nM | –
35 | CCCCCC[C@H](C(=O)N1C[C@@H](Oc2ccc(OCC3CC3)cc2)C[C@H]1C(=O)O)n1cnc(NC(=O)c2ccccc2S(=O)(=O)O)c1 [Example 55] | 0.398 nM | –
36 | CCCCCC[C@H](C(=O)N1C[C@@H](Oc2ccc(-c3nc(C(=O)O)co3)cc2)C[C@H]1C(=O)O)n1cnc(NC(=O)c2ccccc2S(=O)(=O)O)c1 [Example 41] | 0.158 nM | –
37 | CCCCCC[C@H](C(=O)N1C[C@@H](Oc2ccc(-n3ccnc3)cc2)C[C@H]1C(=O)O)n1cnc(NC(=O)c2ccccc2S(=O)(=O)O)c1 [Example 38] | 1.26 nM | –
38 | CCCCCCC(C(=O)N1CCC[C@@H]1C(=O)O)n1cnc(NC(=O)c2ccccc2S(=O)(=O)O)c1 (stereo partly drawn) [Example 11] | 200 nM and 251 nM | –
39 | CCCCCC[C@H](C(=O)N1C[C@@H](Oc2ccc(CC(=O)N(C)CC(=O)O)cc2)C[C@H]1C(=O)O)n1cnc(NC(=O)c2ccccc2S(=O)(=O)O)c1 [Example 46] | 2 nM | –
